# Legend:
# TAF1-BD2 = TAF1-BD2 (Homo sapiens, UniProt P21675); assay: TAF1-BD2 TR-FRET Binding Assay; conditions: read-out: TAF1-BD2 HTRF IC50
# TAF1-BD1 = TAF1-BD1 (Homo sapiens, UniProt P21675); assay: TAF1-BD1 TR-FRET Binding Assay; conditions: read-out: TAF1-BD1 HTRF IC50
IC50 (TAF1-BD2),IC50 (TAF1-BD1),Structure (SMILES)
0.61 µM,4.62 µM,"Cc1[nH]c2c(=O)n(C)cc(C#CC(C)(C)O)c2c1C(=O)OCc1ccncc1 [Example 112, 4-pyridylmethyl 4-(3-hydroxy-3-methyl-but-1-ynyl)-2,6-dimethyl-7-oxo-1H-pyrrolo[2,3-c]pyridine-3-carboxylate]"
0.024 µM,0.123 µM,"COc1ccccc1COC(=O)c1c(C)[nH]c2c(=O)n(C)cc(C#CC(C)(C)O)c12 [Example 113, (2-methoxyphenyl)methyl-4-(3-hydroxy-3-methyl-but-1-ynyl)-2,6-dimethyl-7-oxo-1H-pyrrolo[2,3-c]pyridine-3-carboxylate]"
0.0341 µM,0.282 µM,"Cc1[nH]c2c(=O)n(C)cc(C#CC(C)(C)O)c2c1C(=O)OCc1ccccn1 [Example 115, 2-pyridylmethyl 4-(3-hydroxy-3-methyl-but-1-ynyl)-2,6-dimethyl-7-oxo-1H-pyrrolo[2,3-c]pyridine-3-carboxylate]"
0.0277 µM,0.105 µM,"Cc1[nH]c2c(=O)n(C)cc(C#CC(C)(C)O)c2c1C(=O)OCc1ccccc1C(F)(F)F [Example 116, [2-(trifluoromethyl)phenyl]methyl 4-(3-hydroxy-3-methyl-but-1-ynyl)-2,6-dimethyl-7-oxo-1H-pyrrolo[2,3-c]pyridine-3-carboxylate]"
0.0389 µM,0.167 µM,"Cc1cccc(COC(=O)c2c(C)[nH]c3c(=O)n(C)cc(C#CC(C)(C)O)c23)c1 [Example 118, m-tolylmethyl 4-(3-hydroxy-3-methyl-but-1-ynyl)-2,6-dimethyl-7-oxo-1H-pyrrolo[2,3-c]pyridine-3-carboxylate]"
0.0267 µM,0.145 µM,"Cc1[nH]c2c(=O)n(C)cc(C#CC(C)(C)O)c2c1C(=O)OCc1ccccc1F [Example 119, (2-fluorophenyl)methyl 4-(3-hydroxy-3-methyl-but-1-ynyl)-2,6-dimethyl-7-oxo-1H-pyrrolo[2,3-c]pyridine-3-carboxylate]"
0.0832 µM,0.26 µM,"Cc1[nH]c2c(=O)n(C)cc(C#CC(C)(C)O)c2c1C(=O)OC(C)c1ccccc1 (stereo not drawn) [Example 120, 1-phenylethyl 4-(3-hydroxy-3-methyl-but-1-ynyl)-2,6-dimethyl-7-oxo-1H-pyrrolo[2,3-c]pyridine-3-carboxylate]"
0.0215 µM,0.085 µM,"Cc1ccccc1COC(=O)c1c(C)[nH]c2c(=O)n(C)cc(C#CC(C)(C)O)c12 [Example 121, o-tolylmethyl 4-(3-hydroxy-3-methyl-but-1-ynyl)-2,6-dimethyl-7-oxo-1H-pyrrolo[2,3-c]pyridine-3-carboxylate]"
0.116 µM,1.71 µM,"C=CCCn1cc(C#CC(C)(O)C2CC2)c2c(C(=O)OCC(C)C)c(C)[nH]c2c1=O (stereo not drawn) [Example 122, isobutyl 6-but-3-enyl-4-(3-cyclopropyl-3-hydroxy-but-1-ynyl)-2-methyl-7-oxo-1H-pyrrolo[2,3-c]pyridine-3-carboxylate]"
0.243 µM,> 20 µM,"C=CCCn1cc(C#C[C@@](C)(O)c2cc(C)on2)c2c(C(=O)OCc3ccccc3C)c(C)[nH]c2c1=O [Example 123, o-tolylmethyl 6-but-3-enyl-4-[(3R)-3-hydroxy-3-(5-methylisoxazol-3-yl)but-1-ynyl]-2-methyl-7-oxo-1H-pyrrolo[2,3-c]pyridine-3-carboxylate]"
0.0597 µM,> 20 µM,"C=CCCn1cc(C#CC(C)(C)O)c2c(C(=O)OCc3ccccc3C)c(C)[nH]c2c1=O [Example 124, o-tolylmethyl 6-but-3-enyl-4-(3-hydroxy-3-methyl-but-1-ynyl)-2-methyl-7-oxo-1H-pyrrolo[2,3-c]pyridine-3-carboxylate]"
0.169 µM,3.05 µM,"C=CCCn1cc(C#C[C@@](C)(O)c2cc(C)on2)c2c(C(=O)OCC(C)C)c(C)[nH]c2c1=O [Example 125, isobutyl 6-but-3-enyl-4-[(3R)-3-hydroxy-3-(5-methylisoxazol-3-yl)but-1-ynyl]-2-methyl-7-oxo-1H-pyrrolo[2,3-c]pyridine-3-carboxylate]"
0.0401 µM,0.123 µM,"Cc1[nH]c2c(=O)n(C)cc(C#CC(C)(O)C3CC3)c2c1C(=O)OCC(C)C (stereo not drawn) [Example 126, isobutyl 4-(3-cyclopropyl-3-hydroxy-but-1-ynyl)-2,6-dimethyl-7-oxo-1H-pyrrolo[2,3-c]pyridine-3-carboxylate]"
0.0684 µM,0.727 µM,"Cc1[nH]c2c(=O)n(C)cc(C#CC(C)(O)CO)c2c1C(=O)OCC(C)C (stereo not drawn) [Example 127, isobutyl 4-(3,4-dihydroxy-3-methyl-but-1-ynyl)-2,6-dimethyl-7-oxo-1H-pyrrolo[2,3-c]pyridine-3-carboxylate]"
0.062 µM,0.253 µM,"Cc1[nH]c2c(=O)n(C)cc(C#CC(C)(O)C(C)C)c2c1C(=O)OCC(C)C (stereo not drawn) [Example 128, isobutyl 4-(3-hydroxy-3,4-dimethyl-pent-1-ynyl)-2,6-dimethyl-7-oxo-1H-pyrrolo[2,3-c]pyridine-3-carboxylate]"
0.28 µM,1.54 µM,"Cc1[nH]c2c(=O)n(C)cc(C#CC(O)(c3ccccc3)C(F)(F)F)c2c1C(=O)OCC(C)C (stereo not drawn) [Example 130, isobutyl 2,6-dimethyl-7-oxo-4-(4,4,4-trifluoro-3-hydroxy-3-phenyl-but-1-ynyl)-1H-pyrrolo[2,3-c]pyridine-3-carboxylate]"
0.0299 µM,0.173 µM,"Cc1[nH]c2c(=O)n(C)cc(C#CC(C)(C)O)c2c1C(=O)OCC(C)C [Example 132, isobutyl 4-(3-hydroxy-3-methyl-but-1-ynyl)-2,6-dimethyl-7-oxo-1H-pyrrolo[2,3-c]pyridine-3-carboxylate]"
0.0311 µM,0.308 µM,"Cc1[nH]c2c(=O)n(C)cc(C#CC(C)(C)O)c2c1C(=O)OC(C)(C)C [Example 133, tert-butyl 4-(3-hydroxy-3-methyl-but-1-ynyl)-2,6-dimethyl-7-oxo-1H-pyrrolo[2,3-c]pyridine-3-carboxylate]"
0.0268 µM,0.222 µM,"Cc1[nH]c2c(=O)n(C)cc(C#CC(C)(O)C3CC3)c2c1C(=O)OC(C)(C)CC#N (stereo not drawn) [Example 134, (2-cyano-1,1-dimethyl-ethyl)-4-(3-cyclopropyl-3-hydroxy-but-1-ynyl)-2,6-dimethyl-7-oxo-1H-pyrrolo[2,3-c]pyridine-3-carboxylate]"
0.0408 µM,0.295 µM,"CC(=O)NCCCOC(=O)c1c(C)[nH]c2c(=O)n(C)cc(C#CC(O)(c3ccccc3)C(F)(F)F)c12 (stereo not drawn) [Example 135, 3-acetamidopropyl 2,6-dimethyl-7-oxo-4-(4,4,4-trifluoro-3-hydroxy-3-phenyl-but-1-ynyl)-1H-pyrrolo[2,3-c]pyridine-3-carboxylate]"
0.0365 µM,0.267 µM,"Cc1[nH]c2c(=O)n(C)cc(C#CC(O)(c3ccccc3)C(F)(F)F)c2c1C(=O)OC(C)(C)CC#N (stereo not drawn) [Example 136, (2-cyano-1,1-dimethyl-ethyl) 2,6-dimethyl-7-oxo-4-(4,4,4-trifluoro-3-hydroxy-3-phenyl-but-1-ynyl)-1H-pyrrolo[2,3-c]pyridine-3-carboxylate]"
0.079 µM,0.481 µM,"CCCCC(C)(C)OC(=O)c1c(C)[nH]c2c(=O)n(C)cc(C#CC(C)(O)C3CC3)c12 (stereo not drawn) [Example 137, 1,1-dimethylpentyl 4-(3-cyclopropyl-3-hydroxy-but-1-ynyl)-2,6-dimethyl-7-oxo-1H-pyrrolo[2,3-c]pyridine-3-carboxylate]"
0.0477 µM,0.232 µM,"CCC(C)(C)OC(=O)c1c(C)[nH]c2c(=O)n(C)cc(C#C[C@@](C)(O)c3cc(C)on3)c12 [Example 139, 1,1-dimethylpropyl 4-[(3R)-3-hydroxy-3-(5-methylisoxazol-3-yl)but-1-ynyl]-2,6-dimethyl-7-oxo-1H-pyrrolo[2,3-c]pyridine-3-carboxylate]"
0.0756 µM,0.244 µM,"Cc1[nH]c2c(=O)n(C)cc(C#CC(C)(O)C3CC3)c2c1C(=O)OC(C)C(C)C (stereo not drawn) [Example 141, 1,2-dimethylpropyl 4-(3-cyclopropyl-3-hydroxy-but-1-ynyl)-2,6-dimethyl-7-oxo-1H-pyrrolo[2,3-c]pyridine-3-carboxylate]"
0.0432 µM,0.288 µM,"CCCCC(C)(C)OC(=O)c1c(C)[nH]c2c(=O)n(C)cc(C#CC(C)(C)O)c12 [Example 146, 1,1-dimethylpentyl 4-(3-hydroxy-3-methyl-but-1-ynyl)-2,6-dimethyl-7-oxo-1H-pyrrolo[2,3-c]pyridine-3-carboxylate]"
0.0237 µM,0.0968 µM,"Cc1[nH]c2c(=O)n(C)cc(C#CC(C)(C)O)c2c1C(=O)OCC1CCCC1 [Example 148, cyclopentylmethyl 4-(3-hydroxy-3-methyl-but-1-ynyl)-2,6-dimethyl-7-oxo-1H-pyrrolo[2,3-c]pyridine-3-carboxylate]"
0.0304 µM,0.0936 µM,"Cc1[nH]c2c(=O)n(C)cc(C#CC(C)(C)O)c2c1C(=O)OCC(C)(C)C [Example 150, 2,2-dimethylpropyl 4-(3-hydroxy-3-methyl-but-1-ynyl)-2,6-dimethyl-7-oxo-1H-pyrrolo[2,3-c]pyridine-3-carboxylate]"
0.0351 µM,0.221 µM,"CCC(C)(C)OC(=O)c1c(C)[nH]c2c(=O)n(C)cc(C#CC(C)(C)O)c12 [Example 151, 1,1-dimethylpropyl 4-(3-hydroxy-3-methyl-but-1-ynyl)-2,6-dimethyl-7-oxo-1H-pyrrolo[2,3-c]pyridine-3-carboxylate]"
0.0998 µM,0.15 µM,"Cc1[nH]c2c(=O)n(C)cc(C#CC(C)(O)CC#N)c2c1C(=O)OCC(C)C (stereo not drawn) [Example 154, isobutyl 4-(4-cyano-3-hydroxy-3-methyl-but-1-ynyl)-2,6-dimethyl-7-oxo-1H-pyrrolo[2,3-c]pyridine-3-carboxylate]"
0.106 µM,0.276 µM,"Cc1[nH]c2c(=O)n(C)cc(C#CC(C)(O)CC#N)c2c1C(=O)OC(C)C (stereo not drawn) [Example 156, isopropyl 4-(4-cyano-3-hydroxy-3-methyl-but-1-ynyl)-2,6-dimethyl-7-oxo-1H-pyrrolo[2,3-c]pyridine-3-carboxylate]"
